Experiments:
c-KIT = target: T1, c-KIT (Homo sapiens, UniProt P10721); experiment: AlphaScreen kinase assay with recombinant enzyme, c-KIT; assay type: biochemical; settings: 100ATP, 8pt, GMean
T1 construct: purchased Millipore 14-559K
Method: (§1) In order to determine the effect of compounds on FLT3 catalytic activity, kinase assays using recombinant enzymes and AlphaScreen® technology have been established. The catalytic activity of c-kit activity was also measured to determine selectivity of the compounds. When the kinases are catalytically active, they phosphorylate a biotinylated peptide substrate on tyrosine residues. Using AlphaScreen® technology, the ability of the compounds to affect the catalytic activity of the kinases can be measured quantitatively. The peptide substrate is immobilized by the AlphaScreen® Streptavidin Donor beads and, upon phosphorylation by a tyrosine kinase, can bind to AlphaScreen® Anti-Phosphotyrosine (PY20) Acceptor beads. Upon excitation of these beads with laser light at 680 nm, singlet oxygen is produced. This singlet oxygen is rapidly quenched, unless the AlphaScreen® Anti-Phosphotyrosine (PY20) Acceptor beads are in close proximity, in which case a proximity signal can be measured at 580 nm. In the presence of catalytic activity, there is a very strong proximity signal. Selective kinase inhibitors affect a decrease in this proximity signal through a decrease in tyrosine phosphorylation of the peptide substrate.
(§2) The assay was performed as summarized below.
(§3) Poly (Glu4-Tyr) Peptide, biotin conjugate [Biotin-GG(EEEEY)10EE] (SEQ ID NO: 4)
(§4) Final concentration=30 nM
(§5) Final concentration for IC50 determination=10 μM (FLT3-D835Y or FLT3-ITD) or 100 μM (c-KIT)
(§6) AlphaScreen® Phosphotyrosine (PY20) Assay Kit
(§7) Final concentration=10 μg/mL
(§8) Dilute compounds in DMSO to 20× final concentration.
(§9) Add 1 μl of compound to each well of 384 well reaction plate (Perkin Elmer #6005359).
(§10) Mix enzyme and Poly (Glu4-Tyr) Peptide substrate at 1.33× final concentration in assay buffer.
(§11) Mix ATP at 5× final concentration in assay buffer.
(§12) Add 15 μL enzyme/substrate mixture to the reaction plate.
(§13) Add 4 μL of ATP to the reaction plate.
(§14) Mix Streptavidin Donor beads at 6× final concentration in Stop/Detection buffer.
(§15) Add 5 μL Streptavidin Donor beads to the reaction plate. Centrifuge 1 minute, shake to mix, and incubate at room temperature for 20 minutes.
(§16) Mix Anti-Phosphotyrosine (PY20) Acceptor beads at 6× final concentration in Stop/Detection buffer.
(§17) Add 5 μL Anti-Phosphotyrosine (PY20) beads to the reaction plate.
(§18) Centrifuge 1 minute, shake to mix, and incubate at room temperature for 60 minutes.
(§19) Read plate on Wallac EnVision™ 2103 Multilabel Reader.

[1] = target: T2, BA/F3-FLT3-ITD + D835Y cells (Homo sapiens, UniProt P36888, D835Y, cells depend on it, form not given); experiment: Cell proliferation assay (CellTiter-Glo), engineered BA/F3 cells; assay type: cell-based, murine; settings: BaF3 FLT3 ITD/D835Y cells, 3d-Growth; read-out: BaF3_FLT3 ITD/D835Y 3d-Growth: IC50
T2 sequence (P36888 1-993 D835Y): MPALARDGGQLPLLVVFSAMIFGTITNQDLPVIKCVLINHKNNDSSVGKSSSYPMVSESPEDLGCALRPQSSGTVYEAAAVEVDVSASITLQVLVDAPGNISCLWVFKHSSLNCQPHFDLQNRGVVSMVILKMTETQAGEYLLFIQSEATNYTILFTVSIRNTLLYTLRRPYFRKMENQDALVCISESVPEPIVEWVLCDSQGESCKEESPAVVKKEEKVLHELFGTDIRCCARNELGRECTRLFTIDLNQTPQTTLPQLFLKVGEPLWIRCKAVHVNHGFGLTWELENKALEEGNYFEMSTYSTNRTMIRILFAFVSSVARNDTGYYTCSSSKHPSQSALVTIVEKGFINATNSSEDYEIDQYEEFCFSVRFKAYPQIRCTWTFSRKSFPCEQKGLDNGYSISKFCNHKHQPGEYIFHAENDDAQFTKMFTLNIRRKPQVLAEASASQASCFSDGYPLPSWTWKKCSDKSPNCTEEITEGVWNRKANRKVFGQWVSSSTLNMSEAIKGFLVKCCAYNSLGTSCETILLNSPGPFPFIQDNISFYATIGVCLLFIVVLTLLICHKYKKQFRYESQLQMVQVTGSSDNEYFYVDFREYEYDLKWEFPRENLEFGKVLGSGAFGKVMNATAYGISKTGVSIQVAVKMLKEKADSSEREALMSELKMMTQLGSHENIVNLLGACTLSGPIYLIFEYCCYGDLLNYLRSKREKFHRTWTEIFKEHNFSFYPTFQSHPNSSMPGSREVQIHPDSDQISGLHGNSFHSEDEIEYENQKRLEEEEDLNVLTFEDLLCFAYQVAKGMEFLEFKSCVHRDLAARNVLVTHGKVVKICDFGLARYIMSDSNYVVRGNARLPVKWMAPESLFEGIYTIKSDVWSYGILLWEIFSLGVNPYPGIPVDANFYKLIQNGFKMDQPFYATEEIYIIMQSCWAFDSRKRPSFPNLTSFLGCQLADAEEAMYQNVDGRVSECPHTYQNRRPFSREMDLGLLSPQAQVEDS
Excerpt: (§20) The FLT3 inhibitors may be assessed using the MOLM-14, Acute Myeloid Leukemia cell line that endogenously expresses FLT3 ITD or derivatives of the human FLT3 AML cell line which acquired the D835Y (activation loop) of F691L (gatekeeper) mutation after selection in escalating doses of the FLT3 Inhibitor AC220. FLT3 inhibitors may also be assessed using cells that are engineered to express mutant FLT3. For engineered cells, murine Ba/F3 cells were transfected with full-length FLT3 ITD/D835Y mutations. The parental BA/F3 cells are dependent upon Interleukin-3 (IL-3) for survival, and introduction of the FLT3 constructs rendered these cells dependent upon FLT3 kinase activity when cultured in the absences of IL-3. Engineered BA/F3 cell growth assays can be performed in either the […] of IL-3, to assess the compound inhibition of FLT3 or to detect the presence of off-target activity, respectively. Inhibitors of FLT3 kinase activity reduce or eliminate the FLT3 oncogenic signaling, resulting in reduced cell proliferation. This inhibition is measured as a function of compound concentration to asses IC50 values.
(§21) Cell lines used in proliferation assays are as follows in Table 3:
(§22) Cells were seeded at 1×10^4 cells per well of a 96 well cell culture plate in 50 μl of cell culture medium. Compounds were dissolved in DMSO, typically at a concentration of 0.5 mM and were serially diluted 1:3 for a total of eight points and added to the cells to final concentrations of […], 0.0041, 0.0014 and 0.00046 μM in 100 μl cell culture medium (final concentration 0.2% DMSO). […] The cells were incubated at 37° C., 5% CO2 for three days. CellTiter-Glo Buffer (Promega Cell Viability Assay catalog #G7573) and substrate were equilibrated to room temperature, and enzyme/substrate Recombinant Firefly Luciferase/Beetle Luciferin was reconstituted. The cell plates were equilibrated to room temperature for 30 minutes, then lysed by addition of an equivalent volume of the Celltiter-Glo Reagent. The plate was mixed for 10 minutes on a plate shaker to lyse the cells. The plates were read on a Tecan M1000 using Luminescence protocol modified to read 0.1 s per well. The luminescence reading assesses the ATP content, which correlates directly with cell number such that the reading as a function of compound concentration was used to determine the IC50 value.

[2] = test system: MOLM-14 D835Y cells, FLT3 ITD and FLT3 D835Y; experiment: Cell proliferation assay (CellTiter-Glo), MOLM-14 D835Y; assay type: cell-based; settings: Homo sapiens, 72 h, 3d-Growth, GMean
Excerpt: as §20, §21, §22

[3] = test system: MOLM-14 F691L cells, FLT3 ITD and FLT3 F691L; experiment: Cell proliferation assay (CellTiter-Glo), MOLM-14 F691L; assay type: cell-based; settings: Homo sapiens, 72 h, 3d-Growth, GMean
Excerpt: as §20, §21, §22

FLT3-D835Y = target: T3, FLT3-D835Y (Homo sapiens, UniProt P36888, D835Y); experiment: AlphaScreen kinase assay with recombinant enzyme, FLT3-D835Y; assay type: biochemical; settings: 8pt, GMean
T3 construct: purchased Invitrogen PV3967
T3 sequence (P36888 27-993 D835Y): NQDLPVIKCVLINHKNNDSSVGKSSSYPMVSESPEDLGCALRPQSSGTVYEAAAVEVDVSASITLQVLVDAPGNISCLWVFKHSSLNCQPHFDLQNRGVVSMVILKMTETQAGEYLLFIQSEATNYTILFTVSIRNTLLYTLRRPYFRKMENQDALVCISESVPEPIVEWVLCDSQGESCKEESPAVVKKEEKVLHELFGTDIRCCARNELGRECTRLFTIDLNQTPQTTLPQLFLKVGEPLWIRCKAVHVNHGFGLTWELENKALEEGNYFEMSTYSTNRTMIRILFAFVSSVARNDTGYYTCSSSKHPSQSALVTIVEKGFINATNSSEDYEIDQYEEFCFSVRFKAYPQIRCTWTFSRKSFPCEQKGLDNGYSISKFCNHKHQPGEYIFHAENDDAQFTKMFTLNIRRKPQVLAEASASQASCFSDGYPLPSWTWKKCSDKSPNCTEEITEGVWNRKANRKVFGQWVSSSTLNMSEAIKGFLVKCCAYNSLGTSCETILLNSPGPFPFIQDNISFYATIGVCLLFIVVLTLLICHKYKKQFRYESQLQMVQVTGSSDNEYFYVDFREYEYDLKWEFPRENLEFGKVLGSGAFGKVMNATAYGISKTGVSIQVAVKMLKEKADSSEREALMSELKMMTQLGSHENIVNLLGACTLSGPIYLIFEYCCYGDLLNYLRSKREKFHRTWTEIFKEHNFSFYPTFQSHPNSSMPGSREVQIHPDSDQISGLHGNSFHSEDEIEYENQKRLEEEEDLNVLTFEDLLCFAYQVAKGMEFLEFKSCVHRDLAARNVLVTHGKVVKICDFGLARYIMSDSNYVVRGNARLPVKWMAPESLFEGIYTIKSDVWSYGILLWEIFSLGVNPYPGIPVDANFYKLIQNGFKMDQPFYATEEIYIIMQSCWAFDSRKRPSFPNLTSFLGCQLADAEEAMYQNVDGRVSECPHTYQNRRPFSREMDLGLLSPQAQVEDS
Method: as §1, §2, §3, §4, §5, §6, §7, §8, §9, §10, §11, §12, §13, §14, §15, §16, §17, §18, §19

T1 sequence (P10721 26-976): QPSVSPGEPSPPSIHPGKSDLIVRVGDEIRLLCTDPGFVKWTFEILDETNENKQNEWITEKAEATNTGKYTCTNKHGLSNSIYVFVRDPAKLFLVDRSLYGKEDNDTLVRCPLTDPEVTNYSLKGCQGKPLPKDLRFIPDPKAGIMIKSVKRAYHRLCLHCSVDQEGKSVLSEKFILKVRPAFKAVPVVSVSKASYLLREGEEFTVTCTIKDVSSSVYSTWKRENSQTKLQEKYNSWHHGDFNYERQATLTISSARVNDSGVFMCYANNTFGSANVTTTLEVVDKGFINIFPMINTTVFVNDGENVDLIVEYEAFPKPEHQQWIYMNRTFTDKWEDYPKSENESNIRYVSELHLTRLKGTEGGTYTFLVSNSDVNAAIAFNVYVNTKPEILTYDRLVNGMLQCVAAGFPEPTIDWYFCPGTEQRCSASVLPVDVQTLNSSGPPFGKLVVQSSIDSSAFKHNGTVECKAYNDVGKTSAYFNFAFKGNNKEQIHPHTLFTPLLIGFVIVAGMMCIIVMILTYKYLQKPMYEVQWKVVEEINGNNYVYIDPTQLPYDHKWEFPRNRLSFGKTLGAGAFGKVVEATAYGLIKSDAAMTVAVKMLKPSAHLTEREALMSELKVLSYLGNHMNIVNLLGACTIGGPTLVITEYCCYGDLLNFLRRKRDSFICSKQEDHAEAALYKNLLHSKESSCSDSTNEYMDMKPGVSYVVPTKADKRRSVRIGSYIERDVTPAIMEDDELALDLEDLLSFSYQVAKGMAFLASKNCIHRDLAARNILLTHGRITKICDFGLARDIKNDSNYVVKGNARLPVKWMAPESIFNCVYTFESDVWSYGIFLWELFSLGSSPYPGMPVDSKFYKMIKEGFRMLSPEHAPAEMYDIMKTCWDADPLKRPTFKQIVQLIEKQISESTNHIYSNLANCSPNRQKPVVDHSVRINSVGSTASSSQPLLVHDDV

Row | Structure (SMILES) | IC50 (c-KIT) [µM] | GI50 [1] [µM] | IC50 [2] [µM] | IC50 [3] [µM] | IC50 (FLT3-D835Y) [µM]
1 | CC(C)(C#N)CNS(=O)(=O)c1cccc(-c2cnc3[nH]c(-c4ccccc4)cc3c2)n1 [Compound P-0108, N-(2-cyano-2-methyl-propyl)-6-(2-phenyl-1H-pyrrolo[2,3-b]pyridin-5-yl)pyridine-2-sulfonamide] | 50 to 100 | 0.0001 to 10 | 0.0001 to 10 | – | –
2 | N#CCCCNC(=O)c1cccc(-c2cnc3[nH]c(-c4ccccc4)cc3c2)n1 [Compound P-0128, N-(3-cyanopropyl)-6-(2-phenyl-1H-pyrrolo[2,3-b]pyridin-5-yl)pyridine-2-carboxamide] | – | – | 0.0001 to 10 | 0.0001 to 10 | 0.0001 to 10
3 | CC(C)(C#N)NC(=O)c1cccc(-c2cnc3[nH]c(-c4cnn(C5CCNCC5)c4)c(Cl)c3c2)n1 [Compound P-0207, 6-[3-chloro-2-[1-(4-piperidyl)pyrazol-4-yl]-1H-pyrrolo[2,3-b]pyridin-5-yl]-N-(1-cyano-1-methyl-ethyl)pyridine-2-carboxamide] | – | – | 0.0001 to 10 | 0.0001 to 10 | 0.0001 to 10
